# Measurements: paper PMC2744931, “Glutamate Uptake Triggers Transporter-Mediated GABA Release from Astrocytes” (PLoS ONE, 2009)
# Key:
# GAT-3 = system: GAT-3; design: method as in PMID 17408599, PMID 16274841; conditions: cited from earlier work
# [1] = system: acute rat hippocampal slices; assay: [3H]GABA efflux from acute rat hippocampal slices (microvolume superfusion); format: cell-based
# Experimental: Radiolabeling of 400 µm thick acute slices was conducted in 200 µl of ACSF in a glass tube. […] To preferentially label the cytosolic over the vesicular pools, incubation of slices at 30°C lasted for 10 min [54]. Slices were washed with fresh ACSF containing GABA-T inhibitors, thereafter placed in a custom-built closed micro-volume (50 µl) chamber secured in a water bath thermostated at 30°C [55]. […] The superfusate was collected in 0.5 ml fractions. After washing for 10 min, 10 fractions were collected to define the basal release of radioactivity (‘pre-stimulus’). At this point, the hippocampal slice was exposed to 100 µM Glu for a period of 10 min (‘drug application’), followed by further 10 min of washing with ACSF (‘washout’). Radioactivity of each 0.5 ml fraction counted in 3 ml HiSafe 3 scintillation mixture was expressed as the percentage of the actual radioactivity content of the slice (fractional release). Fractional release data from individual slices were normalized to a first order exponential curve (obtained by fitting the pre-stimulus and the last 3 washout values). Normalized percent efflux data from fractions of ‘pre-stimulus’ (1–10 min) versus ‘drug application’ (11–20 min) periods were averaged and compared by statistical analysis.
# [2] = system: GABA transport in rat cerebrocortical NPMV (GAT-2/3); assay: [3H]GABA uptake in rat cerebrocortical native plasma membrane vesicles (NPMV) in the presence of 100 µM NNC-711; format: biochemical
# Experimental: (§1) Cerebral cortices of 4–6 weeks old male Wistar rats (Toxicoop, Hungary) and frozen human brain tissue samples (Hungarian Brain Tissue Bank, Budapest) were used to prepare NPMV fractions, that contain numerous membrane vesicles of different sizes and shapes, a few intact synaptosomes and free mitochondria. […] Afterward, preincubated solution was incubated with [^3H]GABA (10 nM, Amersham) and GABA (90 nM, Sigma) for 1 min. In case of [^3H]β-alanine uptake, incubation solution contained 100 nM [^3H]β-alanine (Amersham) and 900 nM β-alanine (Sigma). After the incubation, samples were immediately filtered through glass fiber filters and washed twice with ice-cold HEPES buffer. The [^3H]GABA level inside the plasma membrane vesicles was determined by liquid scintillation method. Although this method is generally used to measure GABA uptake, we applied it to follow GABA release due to the simplicity and reliability of the assay. We also determined GABA release by preloading [^3H]GABA into NPMV vesicles and measuring the [^3H]GABA level in the intracellular and extracellular milieu. […] Non-specific uptake was determined in the presence of 1 mM guvacine. The radioactivity of samples was counted in HiSafe 3 (Perkin Elmer) scintillation mixture.
# Glu decarboxylase (GAD) = assay: NMR (13C-HSQC) of [13C]GABA formation from [13C]Glu in rat cortical NPMV fraction; format: biochemical
# Experimental: NPMV samples for NMR experiments were prepared as described before. NPMV fractions from the whole cortex were homogenized in 1 ml HEPES buffer containing 300 µM [^13C]Glu and were incubated at 30°C for 30 min. The homogenate was then centrifuged at 3500 g for 15 min. The supernatant (extracellular fraction) was stored and the pellet (intracellular fraction) was suspended in 1 ml HEPES buffer and frozen (−80°C) and thawed 3 times. In the NMR experiments on brain slices, 13 hippocampal slices were put in a 2 ml centrifuge tube and the ACSF was replaced with 1 ml ACSF containing 300 µM [^13C]Glu. The slices were incubated at 37°C for 30 min. Afterwards, the samples were frozen (−80°C) and thawed 3 times.
# NMR experiments were carried out at 30°C on a Varian NMR SYSTEM (600 MHz for ^1H) four-channel spectrometer using a 5 mm indirect detection triple resonance (^1H^13C^15N) z-axis gradient probe. Samples (200 µl) were placed into 5 mm Shigemi NMR tubes. Gradient-enhanced ^1H/^13C heteronuclear correlation spectra (^13C-HSQC) were acquired with a ^1H spectral width of 9600 Hz and 2048 complex points, zero-filled to a total of 4096. […] Gaussian and exponential weighting functions were applied in the F2 dimension, while the indirectly detected dimensions were Gaussian weighted only. […]
# GAT-2/3 = assay: [3H]β-alanine uptake in rat cerebrocortical NPMV fraction; format: biochemical; conditions: n = 3
# Experimental: as §1
# rat cortex NPMVs = assay: [3H]GABA release from NPMV vesicles preloaded with [3H]GABA; format: biochemical; conditions: 10 min incubation with Glu, n = 3
# Experimental: as §1
# rat cerebrocortical NPMV = assay: Total extracellular GABA by HPLC in rat cerebrocortical NPMV samples; format: biochemical; conditions: 300 µM Glu, n = 3
# human NPMVs = assay: [3H]GABA uptake in human brain tissue NPMVs; format: biochemical; conditions: 100 µM NNC-711; hippocampus, cortical gray and white matter, spinal cord white matter, choroid plexus, corpus callosum
# Experimental: as §1
# rat hippocampus = assay: In vivo microdialysis and HPLC amino acid detection in the hippocampus
# Experimental: Male Wistar rats (300–400 g) were anaesthetized with halothane (1% in air) and microdialysis probes were implanted into the ventral hippocampus (A: −5.0, L: 5.0, V: −8.0) as described previously. To minimize tissue damage, the final position of the probes was reached slowly, in not less than 20 min. Perfusion of artificial cerebrospinal fluid, containing 144 mM NaCl, 3 mM KCl, 1 mM MgCl2, 2 mM CaCl2 (pH 7.4), was performed at a rate of 1 µl/min. The dialysate samples during 20 min were stored at −20°C. To establish the background amino acid concentration, each experiment started with the collection of three control samples with <10% variation. NNC-711 was applied bilaterally for 60 min followed by the simultaneous application of t-PDC and NNC-711 for 60 min. Concentration of amino acids was measured by pre-column derivatization of primary amino acids with orthophthalaldehyde (OPA, Sigma). Derivatization was performed at pH 10.4 in the presence of mercaptoethanol. OPA-derivatized amino acids were detected with fluorescence detector excitation wavelength 340 nm and emission wavelength 440 nm. Because of the instability of OPA derivatives, the HPLC technique was automated on an HP 1100 series system. Amino acids were separated on HP Hypersyl ODS reversed-phase columns (200×2.1 mm) filled with 5 µm C-18 spherical packing material. Eluent A was 0.1 M phosphate buffer containing 0.5% (vol/vol) tetrahydrofuran (Merck), pH 5.6, while eluent B contained 70% acetonitrile (Merck) in eluent A, pH 5.6. The gradient profile was: 12% B at 0 min, 23% B at 9 min, 36% B at 18 min, 100% B at 20 min, 100% B at 25 min and 12% B at 30 min. The column equilibration time was 8 min. External standards of 10 µM amino acids were injected after every 20 samples. Chromatograms were evaluated with HP Chem-Station software. Concentration of GABA measured in dialysate samples collected during drug applications were related to averaged GABA concentration of control samples collected for an hour prior to drug application and were given as percent changes.
# hippocampus = conditions: cited from earlier work
compound,measurement,setting,value
CN1C(=O)CC(=O)N(c2ccccc2)c2cc(Cl)ccc21 [clobazam],GAT-3 expression in the hippocampus,GAT-3,up-regulate GAT-3 expression
"NNC(N)=O [SCB, semicarbazide]",elevation of [GABA]o ([3H]GABA efflux),"[1]; Glu-induced release, slices of SCB-treated animals (100 mg/kg i.p., 2 mM present), n = 7",145±14 % of pre-stimulus control
same,modulation of the effect of Glu on GABA transport / cytosolic GABA level in rat cortical NPMV,[2]; 100 µM NNC-711 present,did not affect [^3H]GABA release
same,effect on [13C]GABA formation,"Glu decarboxylase (GAD); SCB treatment, rat cortical NPMV fraction",completely blocked
CC[C@@H](C(N)=O)N1CCCC1=O [levetiracetam],GAT-3 expression in the hippocampus,GAT-3,up-regulate GAT-3 expression
"N[C@@H](CCC(=O)O)C(=O)O [Glu, L-glutamate]",elevation of [GABA]o ([3H]GABA efflux),"[1]; 100 µM Glu in low-[Ca2+]/high-[Mg2+] buffer, n = 5",148.3±15.5 % of pre-stimulus control
same,elevation of [GABA]o ([3H]GABA efflux),"[1]; 100 µM Glu in the presence of glutamate receptor antagonists (DL-AP5 50 µM, CNQX 10 µM, (S)-MCPG 500 µM), n = 7",128.5±13.4 % of pre-stimulus control
same,elevation of [GABA]o ([3H]GABA efflux),"[1]; 100 µM Glu, control conditions, n = 6",149±14 % of pre-stimulus control
same,share of average [GABA]o increase remaining,[1]; Glu-induced release in the presence of Glu receptor antagonists,58%
same,effect on cytosolic β-alanine level ([3H]β-alanine uptake),GAT-2/3,reduce cytosolic level
same,IC50,rat cortex NPMVs,13.1 ± 1.6 µM
same,increase of the extracellular GABA level (HPLC),rat cerebrocortical NPMV; SCB-treated rats,35±6%
same,increase of the extracellular GABA level (HPLC),rat cerebrocortical NPMV; control rats,46±3%
same,inhibition of [3H]GABA uptake in human brain tissue samples,human NPMVs,able to inhibit [^3H]GABA uptake in all investigated areas
same,IC50,"[2]; 10 min preincubation, 100 µM NNC-711, rat cerebrocortical NPMV, n = 7, read-out: IC50, inhibition of [3H]GABA uptake",11 ± 0.1 µM
same,inhibition of GABA uptake,"[2]; preincubation of vesicles with Glu for 10 minutes, in the presence of NNC-711",52%
"O=C(O)[C@@H]1CN[C@@H](C(=O)O)C1 (relative stereo) [t-PDC, L-trans-pyrrolidine-2,4-dicarboxylate]",inhibition of [3H]GABA uptake in human brain tissue samples,human NPMVs,able to inhibit [^3H]GABA uptake in all investigated areas
same,[Arginine]o in the rat hippocampus in vivo,"rat hippocampus; control for non-specific release, n = 10",94±32 % of control
same,[GABA]o in the rat hippocampus in vivo,"rat hippocampus; microdialysis application, t-PDC applied together with NNC-711, n = 10",233±33 % of control
same,effect on GABA transport in rat cortical NPMV,"[2]; 10 min preincubation, 100 µM NNC-711 (Figure 1B)",able to affect GABA transport
same,neuronal damage after in vivo administration in the hippocampus,hippocampus,did not produce cell death
same,neuronal damage in vivo,hippocampus; very high concentration (25–100 mM),did not evoke neuronal damage in vivo
"[15NH2][13C@@H]([13CH2][13CH2][13C](=O)O)[13C](=O)O [[^13C]Glu, [U-^13C/^15N]Glu]",share of extracellularly applied [13C]Glu converted to [13C]GABA and released,"Glu decarboxylase (GAD); 300 µM [13C]Glu, 30 min, rat cortical NPMV",~5%
